In patent US20260078120A1, “SUBSTITUTED PYRIDOPYRIMIDINONES” (MIRATI THERAPEUTICS, INC., priority 2022, published 2026):

Experiments:
Type in all cases: cell-based
[1] = system: T47D (PI3Kα H1047R mutant) cells; assay: Inhibition of pAKT formation, alphaLISA SureFire Ultra AKT 1/2/3 (pS473), T47D cells; conditions: Homo sapiens, T47D, T47D (PI3Kα H1047R mutant) cells; inhibition of pAKT (pS473) formation; approximately one hour or 24 hours treatment; read-out: T47D pAKT (H1047R mutant) IC50
Summary of the method: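 AKT Ser473 phosphorylation was quantified by alphaLISA SureFire Ultra after roughly 1 h or 24 h compound exposure at 37 °C. Cells were T47D (12,000/well in HBSS), treated with a 10-point 1:4 series starting at 10.4 μM. Percent of control used alpelisib background and DMSO reference, and IC50 came from four-parameter logistic fitting.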

[2] = system: MKN1 (PI3Kα E545K mutant) cells; assay: CellTiter-Glo 2.0 luminescent cell viability assay, 72 hours, MKN1 cells; conditions: Homo sapiens, MKN-1; MKN1 (PI3Kα E545K mutant) cells, CellTiter-Glo, approximately 72 hours; read-out: MKN1 (E545K) Viability IC50
Summary of the method: (§1)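 Viability was measured by CellTiter-Glo 2.0 luminescence after approximately 72 h of compound exposure at 37° C. Plating was 1000 cells per well the day before dosing, with ten 1:4 dilutions from a 10 µM top concentration. Values as percent of vehicle were fitted by variable-slope log(inhibitor) regression to give IC50.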

[3] = system: SKBR3 (PI3Kα wild type) cells; assay: Inhibition of pAKT formation, alphaLISA SureFire Ultra AKT 1/2/3 (pS473), SKBR3 cells; conditions: Homo sapiens, SK-BR-3; Inhibition of pAKT in SKBR3 (PI3Kα wild type) cells; read-out: SKBR3 (WT) pAKT IC50 (nM) (H1047R mutant) IC50
Summary of the method: (§2)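 Cells seeded in HBSS (SKBR3 12,000/well, MKN1 24,000/well) and dosed immediately, 10-point 1:4 series from […], for about 1 h or 24 h at 37 °C. pAKT S473 by alphaLISA after lysis; signal normalised to alpelisib and DMSO controls, IC50 by four-parameter fit.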

[4] = system: T47D (PI3Kα H1047R mutant) cells; assay: CellTiter-Glo 2.0 luminescent cell viability assay, 72 hours, T47D cells; conditions: Homo sapiens, T47D, 72 h, T47D (PI3Kα H1047R mutant) cells, CellTiter-Glo, approximately 72 hours; read-out: T47D (H1047R mutant) Viability IC50
Summary of the method: as §1

[5] = system: MKN1 (PI3Kα E545K mutant) cells; assay: Inhibition of pAKT formation, alphaLISA SureFire Ultra AKT 1/2/3 (pS473), MKN1 cells; conditions: Homo sapiens, MKN-1; MKN1 (PI3Kα E545K mutant) cells; inhibition of pAKT (pS473) formation; approximately one hour or 24 hours treatment; read-out: MKN1 (E545K) pAKT IC50
Summary of the method: as §2

[6] = system: SKBR3 (PI3Kα wild type) cells; assay: CellTiter-Glo 2.0 luminescent cell viability assay, 72 hours, SKBR3 cells; conditions: Homo sapiens, SK-BR-3, 72 h, SKBR3 (PI3Kα wild type) cells, CellTiter-Glo, approximately 72 hours; read-out: SKBR3 (WT) Viability IC50
Summary of the method: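 Viability measured via CTG luminescence following roughly 72 hours of compound exposure at 37° C. Dosing used a 10 um starting concentration diluted 1:4 over 10 points; percent-of-vehicle data fitted with a variable-slope four-parameter model for IC50.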

SMILES	IC50 [1]	IC50 [2]	IC50 [3]	IC50 [4]	IC50 [5]	IC50 [6]
Cc1cc([C@@H](C)Nc2ccccc2C(=O)O)c2nc(N3CCC(C)(C)CC3)cc(=O)n2c1 (single isomer, unassigned) [Example 5-5]	1210 nM	> 10 µM	> 10000 nM	8.02 µM	> 10 µM	> 10 µM
CCc1c(N2CCCCC2)nc2c(C(C)Nc3ccccc3C(=O)O)cc(C)cn2c1=O (stereo not drawn) [Example 5-6, 2-((1-(3-ethyl-7-methyl-4-oxo-2-(piperidin-1-yl)-4H-pyrido[1,2-a]pyrimidin-9-yl)ethyl)amino)benzoic acid]	28.1 nM	> 10 µM	9050 nM	3.8 µM	6.52 µM	> 10 µM
Cc1cc([C@@H](C)Nc2ccccc2C(=O)O)c2nc(N3Cc4ccccc4C3)c(C)c(=O)n2c1 (single isomer, unassigned) [Example 5-9-2]	3010 nM	> 10 µM	> 10000 nM	9.68 µM	> 10 µM	> 10 µM
Cc1cc(C(C)Nc2ccccc2C(O)C(F)(F)F)c2nc(N3CCCCC3)cc(=O)n2c1 (stereo not drawn) [Example 3-18, 7-methyl-2-(piperidin-1-yl)-9-(1-((2-(2,2,2-trifluoro-1-hydroxyethyl)phenyl)amino)ethyl)-4H-pyrido[1,2-a]pyrimidin-4-one]	1390 nM	> 10 µM	> 10000 nM	4.2 µM	> 10 µM	> 10 µM
